Results reported in a melting point compilation (Tetko et al.; mined from patent text by program, amines drawn as free bases though some values may be those of a salt).

SMILES | melting point [°C]
O=C(CCn1cnc2c(=O)[nH]cnc21)NC(Cc1ccccc1)C(=O)O (stereo not given) | 240 to 242
CNC(=O)CCC(=O)c1ccc(OCC2CO2)cc1 (stereo not given) | 133 to 140
Cc1cc2c(c(C(C)(C)C)c1)OC(=O)C2=C1C(=O)Oc2c1cc(C)cc2C(C)(C)C | 253 to 255
CC[C@H](C)C(OCc1ccccc1)[C@@H]1[C@H]([N+](=O)[O-])[C@H](c2ccccc2)N(C(=O)CN)[C@]1(C)C(=O)NCCC(=O)O (stereo not given in full) | 116
CN(C)CCN1C(=O)C(NC(=O)CCc2ccc(Cl)cc2Cl)N=C(c2ccccc2)c2ccccc21 (stereo not given) | 199 to 201
CC(C)(C)c1ccccc1N1CCN(C(=O)c2ccccc2)CC1 | 104 to 106
COc1cccc(C(=Cc2ccccc2)c2cccc(OC)c2OC)c1OC | 138
CN1CCC(P(=O)(O)O)(P(=O)(O)O)N=C1N | 308
COC(=O)C(C)(C)Oc1ccc(C(=O)c2cccs2)cc1 | 85
CCCCCCCCn1nnc(NC(=O)Nc2c(C(C)C)cccc2C(C)C)n1 | 139 to 140
Cc1cnc2ncc(-c3cccc(-c4ccccc4C#N)c3)n2n1 | 211 to 216
COC(=O)c1cccc(OC2CCOc3ccc(OCc4ccccc4)cc3C2=O)c1 (stereo not given) | 134 to 136
Nc1cc(I)cnc1Cl | 129
CC(=O)CCCCC(=O)Nc1ccc(C=CC(=O)O)cc1 | 222 to 225
CNc1nc(C)c(-c2cn3ccc(C)cc3n2)s1 | 220 to 221
CC(C)(C)OC(=O)N1CCc2cc3nccnc3cc2CC1 | 107 to 109
Cc1cc2c(cc1C)C(O)(c1ccccc1Cl)C(=O)N2 (stereo not given) | 251 to 253
NC(=O)CCNc1ccc(OC(F)(F)F)cc1 | 76
OCc1cc(-c2ccccc2)no1 | 48 to 50
COc1cccc(NC(=O)NC2N=C(c3ccccc3)c3ccccc3N(CCN(C)C)C2=O)c1 (stereo not given) | 213 to 215
Nc1ncc(CN2CCN(c3cccc(Cl)c3)CC2)c(N)n1 | 222 to 226
CC(=O)OC=C1CSC2C(NC(=O)Cc3ccccc3)C(=O)N2C1C(=O)OC(C)(C)C (stereo not given) | 178 to 183
CCOC(=O)c1c[nH]cc1-c1ccc(Cl)cc1 | 137 to 138
Cc1ccc(S(=O)(=O)NCCO)c(C)c1 | 70 to 72
CCn1cc(C(=O)O)c(=O)c2cc(F)c(N3CCN(C)C(c4cc5cc(Cl)ccc5o4)C3)cc21 (stereo not given) | 248 to 249

SMILES | melting point [°C]
O=C1CNc2ncc(I)cc2N1Cc1cc(F)c(F)cc1F | 227 to 228
CC(C)(CONCc1ccccc1Cl)C(=O)O | 78 to 80
Cc1ncoc1C(O)c1ccc(F)cc1 (stereo not given) | 102 to 104
CCCC1=C(C#N)C(c2ccccc2Cl)c2c(n[nH]c2C2CC2)N1 (stereo not given) | 270
Nc1ccc(C(O)c2ccccn2)cc1 (stereo not given) | 139 to 140
Cc1cccc(-c2ccc3c(ccn3Cc3ccc(C(C)(C)C)cc3)c2)c1 | 94 to 95
CCC1(c2cccc(S(=O)(=O)c3ccc(C(C)(C)C)cc3)c2)COC(C)(C)O1 (stereo not given) | 108 to 110
O=S(=O)(F)Cc1ccc(F)c(Oc2ccccc2)c1 | 59.5 to 61.5
CC(C)(C)OC(=O)C(C1NC(C(=O)OCc2ccccc2)C2(CCCCC2)S1)N1C(=O)c2ccccc2C1=O (stereo not given) | 165 to 166
CC(C)(C)C1=C(c2cc3cc(O)ccc3o2)OCC1(C)C | 129 to 130
O=C(O)c1cccc(Oc2ccc([N+](=O)[O-])cc2Cl)c1 | 172 to 173
CCc1c(Cl)cnc(N)c1F | 71 to 72
C#CCOCC1=C(C(=O)OCC)C(c2cccc(Cl)c2Cl)C(C(=O)OC)=C(C)N1 (stereo not given) | 104 to 105
C[C@@H]1C(=O)C[C@H]2C[C@@H]1OO[C@@]2(C)/C=C\c1cccc(C(F)(F)F)c1 | 101
CCCCCOc1cc2c(cc1OCc1cccc(C(=O)OC)c1)C(=O)CC2 | 110 to 111
CC(NCCN(CCNC(C)=C1C(=O)CC(C)(C)CC1=O)C(=O)CCC(=O)O)=C1C(=O)CC(C)(C)CC1=O | 65 to 68
CCOC(=O)NC(Cc1ccccc1)C(O)C(=O)O (stereo not given) | 138 to 140
CS(=O)(=O)N1CCn2c(nc3c(N)nc4cc(Br)ccc4c32)C1 | 315 to 317
CC(C)C(NC(=O)OC(C)(C)C)C(=O)NC(C(=O)OCC1OC(n2cc(C=CBr)c(=O)[nH]c2=O)CC1N=[N+]=[N-])C(C)C (stereo not given) | 95 to 97
CC(C)n1c(C=CC=O)c(-c2ccc(F)cc2)c(-c2ccc(F)cc2)c1C=CC=O | 207
CCOC(=O)C(C)Oc1ccc(-c2nc(-c3ccc(C)cc3C)nc(-c3ccc(C)cc3C)n2)c(O)c1 (stereo not given) | 120 to 122
CCOC(=O)c1cn(CCO)c2cc(Cl)c(F)cc2c1=O | 202
c1ccc(N2c3ccccc3CC2C2=NCCN2)cc1 (stereo not given) | 141 to 144
C[C@H](NC(=O)OC(C)(C)C)[C@@H]1CCN(c2nc3c(cc2F)c(=O)[nH]c(=O)n3C2CC2)C1 | 249 to 251
CCCc1c(OCCCCCCOc2ccc(C(=O)c3cccc(C(=O)OCC)c3)cc2CCC(=O)OCC)ccc2c1OCCC2=O | 58 to 59.5
